{
  "source": "patent US10463040B2",
  "about": "“Composition comprising a pesticide and isononanoic acid N,N-dimethyl amide” (BASF SE, priority 2015, dated 2019)",
  "key": {"[1]": {"tested_on": "wheat and black bindweed", "test": "Phytotoxicity laboratory test: plants treated with 2 g of a 1% emulsion, evaluated visually after 3 days", "assay_type": "in vivo", "description": "No phytotoxicity in the context of the present invention means that in comparison to untreated plants, 0% of the treated plants have plant injury according to the phytotoxicity method described below.\nPhytotoxicity in accordance with the present invention is determined by an assay where e.g. wheat (grasses) or black bindweed (broad leave), are treated with 2 g of a 1% Emulsion described below and are visually evaluated after 3 days of incubation. Plant injury covers the assessment of leave condition as well as resistance to lodging in case of grasses.\nThe emulsion is prepared by mixing 1% of concentrate with water. The concentrate consists of 7.5% of castor oil ethoxylate (30 EO), 2.5% Ca-Dodecylbenzolsulfonate and 90% carboxylic acid amide. The experimental period lasts for 3 days. During this time, the experimental plants receive optimum watering, with nutrients being supplied via the water used for watering.\nThe phytotoxicity is evaluated by awarding scores to the treated plants in comparison to untreated plants, i.e. treated with water only. The evaluation scale ranges from 0% to 100% phytotoxicity. The evaluation is done by visual examination. 0% phytotoxicity means that there are no differences between treated and untreated plants. […]\nPlants, i.e. wheat and black bindweed, were treated with 2 g of a 1% Emulsion described below and were visually evaluated after 3 days of incubation. […]"}, "[2]": {"test": "Emulsion stability: 5% of the emulsion concentrate diluted in CIPAC water D, ml cream after 1, 2, 4 and 24 h", "assay_type": "physicochemical", "set-up": "key to Emulsion 5% in Cipac D 2 h / Emulsion 5% in Cipac D 4 h / Emulsion 5% in Cipac D 1 h / Emulsion 5% in Cipac D 24 h: stable = no cream", "settings": "for Emulsion 5% in Cipac D 1 h / Emulsion 5% in Cipac D 2 h / Emulsion 5% in Cipac D 4 h / Emulsion 5% in Cipac D 24 h: amide 63%; for Stability of the emulsion comprising the amide: summary in words of Example 4", "description": "Stable in the context of the present invention means that no cream has formed within 24 hours after mixing components of a formulation. To measure the stability, 5% of the formulation (emulsion concentrate) is diluted in CIPAC water D in a 100 ml cylinder. The resulting oil-in-water emulsion is assessed after 1, 2, 4 and 24 hours."}, "[3]": {"test": "Determination of the max. solubility of fungicide/herbicide in the carboxylic acid amide (quantitative 1H-NMR of supernatant)", "assay_type": "physicochemical", "description": "The respective fungicide/herbicide was dissolved in the solvent of interest so that a supersaturated solution was obtained. The deposit was filtered off. The concentration of the fungicide/herbicide in the supernatant was determined via quantitative 1H-NMR spectroscopy."}, "[4]": {"settings": "Formulation: Oxyfluorfen 25%, Ca Dodecylbenzolsulfonat 2%, Castor oil ethoxylate (35 EO) 10%"}, "[5]": {"settings": "Formulation: Oxyfluorfen 25%, Castor oil ethoxylate (35 EO) 12%"}, "[6]": {"settings": "Formulation: Tebuconazol 25%, Ca Dodecylbenzolsulfonat 2%, Castor oil ethoxylate (35 EO) 10%"}, "[7]": {"settings": "Formulation: Tebuconazol 25%, Castor oil ethoxylate (35 EO) 12%"}},
  "data": [
    {"smiles": "CC(CC(=O)N(C)C)CC(C)(C)C", "note": "(stereo not drawn) [Isononanoic acid N,N-dimethylamide, isononanoic acid N,N-dimethylamide]", "values": [
      {"measurement": "Phytotoxicity", "setting": "[1]; 3 days after treatment, 1% emulsion of concentrate (7.5% castor oil ethoxylate (30 EO), 2.5% Ca-Dodecylbenzolsulfonate, 90% amide), wheat and black bindweed", "value": "0 (0 means no damage)"},
      {"measurement": "Phytotoxic effect on plants", "setting": "[1]; statement in words in the description", "value": "no phytotoxic effect"},
      {"measurement": "Emulsion 5% in Cipac D 1 h", "setting": "[2]; [4]", "value": "stable"},
      {"measurement": "Emulsion 5% in Cipac D 2 h", "setting": "[2]; [4]", "value": "stable"},
      {"measurement": "Emulsion 5% in Cipac D 4 h", "setting": "[2]; [4]", "value": "stable"},
      {"measurement": "Emulsion 5% in Cipac D 24 h", "setting": "[2]; [4]", "value": 0.5, "unit": "ml cream"},
      {"measurement": "Emulsion 5% in Cipac D 1 h", "setting": "[2]; [5]", "value": "stable"},
      {"measurement": "Emulsion 5% in Cipac D 2 h", "setting": "[2]; [5]", "value": "stable"},
      {"measurement": "Emulsion 5% in Cipac D 4 h", "setting": "[2]; [5]", "value": "stable"},
      {"measurement": "Emulsion 5% in Cipac D 24 h", "setting": "[2]; [5]", "value": "stable"},
      {"measurement": "Emulsion 5% in Cipac D 1 h", "setting": "[2]; [6]", "value": "stable"},
      {"measurement": "Emulsion 5% in Cipac D 2 h", "setting": "[2]; [6]", "value": "stable"},
      {"measurement": "Emulsion 5% in Cipac D 4 h", "setting": "[2]; [6]", "value": "stable"},
      {"measurement": "Emulsion 5% in Cipac D 24 h", "setting": "[2]; [6]", "value": 0.5, "unit": "ml cream"},
      {"measurement": "Emulsion 5% in Cipac D 1 h", "setting": "[2]; [7]", "value": "stable"},
      {"measurement": "Emulsion 5% in Cipac D 2 h", "setting": "[2]; [7]", "value": "stable"},
      {"measurement": "Emulsion 5% in Cipac D 4 h", "setting": "[2]; [7]", "value": 0.5, "unit": "ml cream"},
      {"measurement": "Emulsion 5% in Cipac D 24 h", "setting": "[2]; [7]", "value": 0.5, "unit": "ml cream"},
      {"measurement": "Stability of the emulsion comprising the amide", "setting": "[2]", "value": "stable"}
    ]},
    {"smiles": "CCCCCCCCC(=O)N(C)C", "note": "[n-C9 N,N-dimethylamide]", "values": [
      {"measurement": "Solubility [%] Oxyfluorfen", "setting": "[3]", "value": 34, "unit": "%"},
      {"measurement": "Solubility [%] Pyraclostrobin", "setting": "[3]", "value": 46, "unit": "%"},
      {"measurement": "Solubility [%] Tebuconazole", "setting": "[3]", "value": 42, "unit": "%"},
      {"measurement": "Emulsion 5% in Cipac D 1 h", "setting": "[2]; [4]", "value": 0.5, "unit": "ml cream"},
      {"measurement": "Emulsion 5% in Cipac D 2 h", "setting": "[2]; [4]", "value": 3, "unit": "ml cream"},
      {"measurement": "Emulsion 5% in Cipac D 4 h", "setting": "[2]; [4]", "value": 4.0, "unit": "ml cream"},
      {"measurement": "Emulsion 5% in Cipac D 24 h", "setting": "[2]; [4]", "value": 6, "unit": "ml cream"},
      {"measurement": "Emulsion 5% in Cipac D 1 h", "setting": "[2]; [5]", "value": 0.5, "unit": "ml cream"},
      {"measurement": "Emulsion 5% in Cipac D 2 h", "setting": "[2]; [5]", "value": 1, "unit": "ml cream"},
      {"measurement": "Emulsion 5% in Cipac D 4 h", "setting": "[2]; [5]", "value": 4.0, "unit": "ml cream"},
      {"measurement": "Emulsion 5% in Cipac D 24 h", "setting": "[2]; [5]", "value": 6, "unit": "ml cream"},
      {"measurement": "Emulsion 5% in Cipac D 1 h", "setting": "[2]; [6]", "value": 3.0, "unit": "ml cream"},
      {"measurement": "Emulsion 5% in Cipac D 2 h", "setting": "[2]; [6]", "value": 8, "unit": "ml cream"},
      {"measurement": "Emulsion 5% in Cipac D 4 h", "setting": "[2]; [6]", "value": 8.0, "unit": "ml cream"},
      {"measurement": "Emulsion 5% in Cipac D 24 h", "setting": "[2]; [6]", "value": 8, "unit": "ml cream"},
      {"measurement": "Emulsion 5% in Cipac D 1 h", "setting": "[2]; [7]", "value": "stable"},
      {"measurement": "Emulsion 5% in Cipac D 2 h", "setting": "[2]; [7]", "value": 2, "unit": "ml cream"},
      {"measurement": "Emulsion 5% in Cipac D 4 h", "setting": "[2]; [7]", "value": 3.0, "unit": "ml cream"},
      {"measurement": "Emulsion 5% in Cipac D 24 h", "setting": "[2]; [7]", "value": 3, "unit": "ml cream"},
      {"measurement": "Stability of the emulsion comprising the amide", "setting": "[2]", "value": "unstable"}
    ]}
  ]
}
